Data: patent publication US6649144B1, “Method for detecting and killing epithelial cancer cells” (Zila, Inc., priority 2001, dated 2003)

System: carcinoma cells
Test: Uptake and retention of mitochondrial marking agents in living carcinoma cells
Format: cell-based
Details: 5 minutes incubation at 37° C., rinsed twice with 1% acetic acid, 2-butanol extraction, spectrophotometry
Experimental: Different concentrations of the various cationic marking agents, at 100, 50, 10 and 1 μg/ml are prepared in RPMI medium complete with 20% fetal calf serum, 1 mM glutamine, hydrocortisone, insulin, transferrin, estradiol, selenium and growth hormone.
The carcinoma cells are incubated at 37° C. in tissue culture incubators with 5% CO2 and 95% relative humidity, for 5 minutes with each agent and concentration there and then rinsed twice using 2 minute incubations with 1% acetic acid. After incubation and rinsing, the cells are harvested, at 30 min., 1 hour, 2 hours, 4 hours and 8 hours. The cells are then extracted with 2-butanol and analyzed by spectrophotometry for quantitation of the marking agent.
The saturation concentration for toluidine blue O occurs at concentrations of 10 μg/ml and above. The saturation concentrations for the other marking agents are similarly determined. The remaining experiments are conducted with a concentration of 10 μg/ml for toluidine blue O and at the saturation concentrations for the other marking agents so-determined, unless stated otherwise.

Cc1cc2nc3ccc(N(C)C)cc3[s+]c2cc1N.[Cl-] [toluidine blue O]
saturation concentration: ≥ 10 µg/mL
